Measured values: patent US20200297798A1, “KEY AMINO ACID SITES […] EXPORT OF NUC[…] INFLUENZA A AND B VIRUSES AND USE THEREOF AS ANTI-INFLUENZA VIRUS DRUG TARGETS” (INSTITUTE OF MICROBIOLOGY, CHINESE ACADEMY OF SCIENCES, priority 2017, published 2020)

Columns and labels:
ANP Y148F = ANP Y148F (Influenza A virus, UniProt P15682, Y148F)
BNP F209A = BNP F209A (Influenza B virus, UniProt P04665, F209A)

Q: For `COc1ccc2cc(C(C)C(=O)O)ccc2c1` (stereo not drawn) [naproxen, (+) α-methyl-6-methoxy-2-naphthaleneacetic acid], which “n (stoichiometry)” value (ANP Y148F) is on record?
A: Its value is 0.10.

Q: And the ΔH (ANP Y148F)?
A: The ΔH was -10.92 kcal/mol.

Q: What about the ΔS (ANP Y148F) of the same compound?
A: Its ΔS is −83.45 J/mol · K.

Q: What about the “n (stoichiometry)” value (BNP F209A) of the same compound?
A: Its value is 1.68.

Q: What about the ΔH (BNP F209A) of the same compound?
A: Its ΔH is -0.167 kcal/mol.

Q: And the ΔS (BNP F209A)?
A: The ΔS was 102.6 J/mol · K.
